One assay deals with HCT-116 cells. Kind of assay: Cell viability assay (CellTiter-Glo). It is filed as cell-based, human. Particulars: for IC50: read-out: concentration required to reduce the viability by 50% (IC50), parental HCT-116 cells; for toxicity to HCT-116 cells: at concentrations as high as 50 μM. The protocol:
The identity for all human cell lines in this study was confirmed by short tandem repeat (STR) analysis. In addition, all human cell lines were confirmed to be mycoplasma free using a PCR based assay (Genatlantis). HCT-116 cells (ATCC) were grown in DMEM medium with 10% FBS and 2 mM L-glutamine. Lenti-X 293T cells (Clontech) were cultured in DMEM medium with 10% FBS and 2 mM L-glutamine. H1155 cells (a gift from Adi Gazdar and John Minna, UT Southwestern) were cultured in RPMI media with 5% FBS and 2 mM L-glutamine. SF9 cells (a gift from Hongtao Yu, UT Southwestern) were cultured in SF900 II serum free media (Life Technologies).
(§1) 12-point dose responses were performed on 96-well assay plates with cell plating (1500-4000 cell per well) on day 1, compound addition on day 2, and survival measurement on day 5. Compounds were diluted in DMSO before adding to the cells. Final DMSO concentration was 0.5%. Cell survival assay was performed using CellTiter-Glo Luminescent Cell Viability Assay kit (Promega) that measures cellular ATP content. Luminescence was recorded by EnVison multimode plate reader (Perkin Elmer). IC50 was determined with GraphPad Prism using baseline correction (by normalizing to DMSO control), the asymmetric (five parameter) equation and least squares fit.
In general terms: In ATP-based viability assays light output follows the ATP content of the culture.

Another assay concerns the target T1, RBM39-Nluc (Homo sapiens, UniProt Q14498+Q66K64).
T1 construct: Homology directed repair facilitates tagging of endogenous RBM39 by AID, 3xFLAG, AcGFP, or Nanoluciferase; endogenous in cells; host or cells: H1155 RBM39-Nluc knock-in cells
Kind of assay: RBM39-Nluc degradation by Nano-Glo luciferase assay. The assay is classed as cell-based. Particulars: H1155 RBM39-Nluc cells; read-out: decrease in RBM39-Nluc activity (IC50). The protocol: NanoLuc was knocked-in to the 3-prime end of the RBM39 gene using the procedure described above yielding H1155 RBM39-Nluc cells. […] Luminescence was recorded by EnVision multimode plate reader (Perkin Elmer). IC50 was determined with GraphPad Prism using baseline correction (by normalizing to DMSO control), the asymmetric (five parameter) equation and least squares fit.

Assay [1] concerns HCT-116 cells expressing RBM39-AID and TIR1. Kind of assay: IAA dose response, cell viability (Cell-Titer Glo). The assay is classed as cell-based, human. To be noted: cells that express both RBM39-AID and TIR1. The protocol: (§2) TIR1 cDNA with a V5 tag sequence appended to its 3′ end was cloned into pLVX IRES zsGreenland packaged into lentivirus to infect both parental HCT-116 cells and RBM39-AID-3xFLAG knock-in cells. Following lentiviral delivery of TIR1, cells with top 5% strongest zsGreen expression were sorted by FACS. TIR1-V5 expression was confirmed by western blot with HRP conjugated anti-VS (Sigma-Aldrich, V2260, 1:5000). For examination of RBM39-AID-3xFLAG degradation, cells were treated with 500 μM IAA for 4 hours before being lysed for western blotting. For IAA dose response curves, cells were treated with various concentrations of IAA for 72 hours and ATP levels were quantified using Cell-Titer Glo (Promega).

The test system of the next assay is RBM39-AID. Put plainly: Auxin induced degradation of RBM39 (western blotting). The assay is classed as cell-based, human. Particulars: cells that express both RBM39-AID and TIR1. The protocol:
as §2

The test system of assay [2] is RBM39 in parental HCT-116 cells. Put plainly: Block of indisulam dependent RBM39 degradation, parental cells. The assay is classed as cell-based, human. The source says:
(§3) (B) RBM39-AID is degraded in the presence of TIR1 and IAA in HCT-116 cells. (C) IAA and TIR1 dependent degradation of RBM39-AID results in cell death. Error bars represent standard errors of the mean (SEM) (n=3). […] The effect of bortezomib is attenuated in a bortezomib resistant cell line. […] The effect of MLN4924 is abrogated in an MLN4924 resistant cell line.
(§4) Proteins were resolved on SDS-PAGE and transferred to 0.5 μm nitrocellulose membranes. Membranes were blocked in 5% milk TBST for 30 min, and then anti-RBM39 antibodies (HPA001591, Sigma-Aldrich) were added in 5% milk (1:5000) and incubated on a shaker overnight at 4° C. After three 5 min washes with TBST, membranes were incubated with HRP-conjugated goat anti-rabbit secondary antibody (Bio-Rad) for 2 hr at room temperature. After three 5 min washes with TBST, membranes were developed with ECL (enhanced chemiluminescence) substrates.

The test system of assay [3] is RBM39 in UBA3 A171T HCT-116 cells. Kind of assay: Block of indisulam dependent RBM39 degradation, MLN4924 resistant line. It is filed as cell-based, human. To be noted: cells harboring UBA3 A171T mutation.
Text: as §3
(§5) The methods for generating a population of barcoded HCT-116 cells were described before (20). […] Clones that appeared after the selection was then expanded and barcode genotyped to identify six clones with unique barcodes. […] Source data for exome sequencing data is available under NCBI SRA accession SRP068238. Bortezomib resistant clones were isolated by selection with 5 nM bortezomib, and MLN4924 resistant clones with 40 nM MLN4924.
as §4

In assay [4] the test system is RBM39 in PSMB5 A108T HCT-116 cells. Kind of assay: Block of indisulam dependent RBM39 degradation, bortezomib resistant line. It is filed as cell-based, human. To be noted: PSMB5 A108T cell line.
Text: as §3, §5, §4

Assay [5] deals with indisulam resistant HCT-116 clones. Put plainly: Cell viability assay, indisulam resistant clones. It is filed as cell-based, human. To be noted: six indisulam resistant clones. The protocol:
as §5, §1

Assay [6] concerns the target T2, DCAF15-3xFLAG and RBM39Δ150 (Homo sapiens, UniProt Q14498+Q66K64).
T2 construct: Full-length cDNAs encoding CUL4A, CUL4B, DCAF15, and DDB1 were cloned into pLVX IRES Puro; made in house; host or cells: RBM39Δ150: Sf9 (baculovirus); DCAF15-3xFLAG: anti-FLAG beads from HCT-116 or 293T cells stably expressing it
Put plainly: RBM39Δ150 pulldown assay. The assay is classed as binding. Particulars: wild type RBM39Δ150. The protocol: RBM39 lacking the first 150 amino acids after the start codon (RBM39Δ150) was cloned into the pFastBac1 (Life Technologies) vector. Site-directed Mutagenesis of RBM39 was performed using Q5 site-directed mutagenesis kit (NEB). DCAF15-GST (C-terminal GST tag) and DDB1 were also cloned into pFastBac1. The production of baculovirus was carried out following vendor's instructions. Protein was expressed in SF9 cells by infection with each protein specific baculovirus, and cells were harvested 48 hr later and frozen in liquid nitrogen. For purification of RBM39Δ150, frozen cells were pulverized by cryomill and resuspended in lysis buffer (40 mM Tris, pH 7.5, 225 mM NaCl, 1× […] Protease inhibitor). The lysate was passed through a 22 gauge needle 2 times followed by ultracentrifugation at 25000 rpm for 30 min. Clarified lysate was incubated with Ni-NTA agarose (Qiagen) for 30 min with rotation at 4° C. Resin and bound protein were washed with wash buffer 1 (40 mM Tris, pH 7.5, 225 mM NaCl) followed by wash buffer 2 (40 mM Tris, pH 7.5, 20 mM imidazole, 225 mM NaCl). Proteins were eluted with elution buffer (40 mM Tris, pH 7.5, 300 mM imidazole, 225 mM NaCl) and concentrated to 0.5 ml. Concentrated proteins were then fractionated on Superdex 200 Increase 10/300 GL (GE Healthcare). RBM39Δ150 and mutants eluted at 14.8 ml after injection and were stored at −80° C. in 40 mM Tris, pH 7.5, 225 mM NaCl. For purification of DCAF15-GST/DDB1, Sf9 cells co-infected with DCAF15-GST and DDB1 baculoviruses were lysed in PBS supplemented with 0.1% NP40, 1× […] Protease inhibitors, and 0.5 mM PMSF. The lysate was passed through a 22 gauge needle 2 times followed by centrifugation at 7000 rpm for 15 min. Clarified lysate was incubated with Glutathione Sepharose 4B resin (GE healthcare) for 30 min with rotation at 4° C. Resin was washed with PBS for three times before elution with 50 mM Tris, 10 mM glutathione, pH 8.
HCT-116 cells stably expressing DDB1-3xFLAG, CUL4A-3xFLAG, CUL4B-3xFLAG, or to DCAF15-3xFLAG were lysed in 1×PBS, 0.1% NP40, and 1× […] protease inhibitor (1 ml per […] plate). […]

Assay [7] concerns HCT-116 RBM39 G268V knock-in cells. Kind of assay: Cell viability assay, RBM39 G268V knock-in. It is filed as cell-based, human. To be noted: at concentrations as high as 50 μM. The protocol:
as §1
sgRNA targeting RBM39 (5′-[…]-3′) was cloned into the pSpCas9(BB)-2A-Puro (PX459) vector (Addgene 62988). For RBM39 G268V knock-in, 1 million HCT-116 or H1155 cells were nucleofected (using 4D-Nucleofector, Lonza) with PX459-RBM39 sgRNA and the single-stranded oligo 5′-[…] […] […] […]-3′ (SEQ ID NO: 13).

Assay [8] has as its system DCAF15-3xFLAG and mutant RBM39Δ150 (M265L, E271Q, P272S). Kind of assay: RBM39Δ150 pulldown assay, mutant RBM39. It is filed as binding, human. To be noted: M265L, E271Q, P272S. The protocol: RBM39 lacking the first 150 amino acids after the start codon (RBM39Δ150) was cloned into the pFastBac1 (Life Technologies) vector. Site-directed Mutagenesis of RBM39 was performed using Q5 site-directed mutagenesis kit (NEB). DCAF15-GST (C-terminal GST tag) and DDB1 were also cloned into pFastBac1. The production of baculovirus was carried out following vendor's instructions. Protein was expressed in SF9 cells by infection with each protein specific baculovirus, and cells were harvested 48 hr later and frozen in liquid nitrogen. For purification of RBM39Δ150, frozen cells were pulverized by cryomill and resuspended in lysis buffer (40 mM Tris, pH 7.5, 225 mM NaCl, 1× […] Protease inhibitor). The lysate was passed through a 22 gauge needle 2 times followed by ultracentrifugation at 25000 rpm for 30 min. Clarified lysate was incubated with Ni-NTA agarose (Qiagen) for 30 min with rotation at 4° C. Resin and bound protein were washed with wash buffer 1 (40 mM Tris, pH 7.5, 225 mM NaCl) followed by wash buffer 2 (40 mM Tris, pH 7.5, 20 mM imidazole, 225 mM NaCl). Proteins were eluted with elution buffer (40 mM Tris, pH 7.5, 300 mM imidazole, 225 mM NaCl) and concentrated to 0.5 ml. Concentrated proteins were then fractionated on Superdex 200 Increase 10/300 GL (GE Healthcare). […]

Where two headings read alike, the source gives them in different places.

T2 sequence (Q66K64 whole entry, stated change not applied): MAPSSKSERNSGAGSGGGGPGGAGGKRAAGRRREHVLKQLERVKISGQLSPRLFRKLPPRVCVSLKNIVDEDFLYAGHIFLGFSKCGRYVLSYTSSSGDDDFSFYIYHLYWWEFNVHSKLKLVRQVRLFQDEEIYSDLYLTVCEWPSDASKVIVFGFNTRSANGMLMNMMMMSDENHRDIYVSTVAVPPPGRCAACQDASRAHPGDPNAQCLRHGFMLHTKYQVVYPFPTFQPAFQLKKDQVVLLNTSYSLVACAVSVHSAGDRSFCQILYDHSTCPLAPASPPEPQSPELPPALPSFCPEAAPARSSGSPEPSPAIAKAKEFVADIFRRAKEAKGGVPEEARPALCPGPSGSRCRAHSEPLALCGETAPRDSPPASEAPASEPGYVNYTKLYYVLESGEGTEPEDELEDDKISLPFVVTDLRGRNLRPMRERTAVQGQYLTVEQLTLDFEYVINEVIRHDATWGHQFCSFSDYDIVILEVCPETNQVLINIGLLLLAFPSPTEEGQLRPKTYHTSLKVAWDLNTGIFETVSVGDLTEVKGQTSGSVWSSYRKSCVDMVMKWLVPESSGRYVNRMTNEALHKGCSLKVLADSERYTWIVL
T2 sequence (Q14498 151-530 limits assumed, stated change not applied): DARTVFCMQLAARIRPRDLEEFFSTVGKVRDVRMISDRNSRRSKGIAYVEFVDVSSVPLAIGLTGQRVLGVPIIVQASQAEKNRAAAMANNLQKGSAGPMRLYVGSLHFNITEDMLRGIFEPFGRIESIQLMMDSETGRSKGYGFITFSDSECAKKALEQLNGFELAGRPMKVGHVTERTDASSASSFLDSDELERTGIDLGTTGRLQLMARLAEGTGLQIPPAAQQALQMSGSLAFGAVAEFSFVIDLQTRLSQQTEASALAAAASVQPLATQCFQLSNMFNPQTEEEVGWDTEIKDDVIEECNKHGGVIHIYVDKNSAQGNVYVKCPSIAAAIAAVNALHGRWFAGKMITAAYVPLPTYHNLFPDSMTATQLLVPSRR
T2 sequence (Q16531 whole entry partner): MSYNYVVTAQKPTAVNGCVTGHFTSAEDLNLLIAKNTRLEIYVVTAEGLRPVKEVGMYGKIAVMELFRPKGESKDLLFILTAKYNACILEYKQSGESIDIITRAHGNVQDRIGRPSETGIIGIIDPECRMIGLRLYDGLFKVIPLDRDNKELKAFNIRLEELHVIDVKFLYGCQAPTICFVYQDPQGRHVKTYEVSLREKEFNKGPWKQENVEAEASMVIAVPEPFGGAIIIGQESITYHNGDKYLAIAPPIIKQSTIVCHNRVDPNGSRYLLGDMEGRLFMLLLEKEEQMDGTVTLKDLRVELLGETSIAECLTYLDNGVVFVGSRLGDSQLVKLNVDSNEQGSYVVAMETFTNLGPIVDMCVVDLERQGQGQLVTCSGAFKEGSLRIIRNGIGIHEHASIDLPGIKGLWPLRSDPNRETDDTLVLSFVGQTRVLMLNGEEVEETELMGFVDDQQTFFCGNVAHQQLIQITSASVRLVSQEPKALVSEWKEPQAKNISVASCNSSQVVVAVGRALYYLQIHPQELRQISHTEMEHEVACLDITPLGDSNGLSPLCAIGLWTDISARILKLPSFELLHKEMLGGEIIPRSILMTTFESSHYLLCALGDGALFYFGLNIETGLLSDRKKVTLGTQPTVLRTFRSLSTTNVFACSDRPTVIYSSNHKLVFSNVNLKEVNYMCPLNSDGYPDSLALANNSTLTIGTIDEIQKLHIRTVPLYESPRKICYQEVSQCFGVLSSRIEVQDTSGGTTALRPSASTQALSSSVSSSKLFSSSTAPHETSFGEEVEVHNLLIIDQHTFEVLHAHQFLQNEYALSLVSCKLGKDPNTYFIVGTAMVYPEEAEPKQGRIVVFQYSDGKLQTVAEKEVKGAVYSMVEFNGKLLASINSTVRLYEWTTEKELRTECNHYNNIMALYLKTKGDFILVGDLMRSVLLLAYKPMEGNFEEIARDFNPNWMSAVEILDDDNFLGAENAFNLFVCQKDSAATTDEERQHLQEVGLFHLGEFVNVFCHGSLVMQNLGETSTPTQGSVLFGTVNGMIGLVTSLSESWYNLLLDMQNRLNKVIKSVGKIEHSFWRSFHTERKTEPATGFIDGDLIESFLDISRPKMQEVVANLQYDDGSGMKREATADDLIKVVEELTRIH

For `Nc1ccc(S(=O)(=O)Nc2cnc3c(Cl)cccc3n2)cc1` [CQS, chloroquinoxaline sulfonamide], in the assay with HCT-116 cells (Homo sapiens), the IC50 stood at 7.1 µM. Further, the DC50 on RBM39-Nluc came out at 2.4 µM.

Consider `O=C(O)Cc1c[nH]c2ccccc12` [IAA, 3-indoleacetic acid], for which, in [1], the cell viability entry was “loss in cell viability”. Moreover, in the assay with RBM39-AID, the RBM39 levels result is reported as “decrease in RBM39 levels”.

On to `NS(=O)(=O)OC[C@@H]1C[C@@H](n2ccc3c(N[C@H]4CCc5ccccc54)ncnc32)C[C@@H]1O` [MLN4924], for which the “effect on degradation of RBM39 in response to indisulam” value in [2] (HCT-116 cells) is given as “blocked the degradation of RBM39”; in [3] it was “did not observe this effect”.

Regarding `CC(=O)Nc1nnc(S(N)(=O)=O)s1` [acetazolamide], the “toxicity to HCT-116 cells” value in the assay with HCT-116 cells is “non-toxic”.

Regarding `CC(C)C[C@H](NC(=O)[C@H](Cc1ccccc1)NC(=O)c1cnccn1)B(O)O` [bortezomib], the “concentration of bortezomib that blocked the degradation of RBM39 in response to indisulam” value in assay [2] (parental cells, 2 h pretreatment, then 6 h 2 μM indisulam) is 10 nM. Besides, the “level of bortezomib required for comparable rescue of RBM39 levels, relative to parental” value in assay [4] is recorded as 10 fold.

For `CC(=O)O[C@H]1C(=O)[C@@]2(C)[C@H]([C@H](OC(=O)c3ccccc3)[C@]3(O)C[C@H](OC(=O)[C@H](O)[C@@H](NC(=O)c4ccccc4)c4ccccc4)C(C)=C1C3(C)C)[C@]1(OC(C)=O)CO[C@@H]1C[C@@H]2O` [paclitaxel], in assay [5], the “resistance of indisulam resistant clones to paclitaxel” value is given as “None of the clones were resistant”.

Take `O=C(NS(=O)(=O)c1ccc(Br)s1)c1ccc(Cl)cc1Cl` [tasisulam]: in assay [6], the “recruitment of RBM39Δ150 to DCAF15” value was “recruit RBM39Δ150 to DCAF15 in a dose-dependent manner”. The “sensitivity of cell line carrying RBM39 G268V” value in [7] is “insensitive”. In addition, the “recruitment of indisulam-resistant mutants of RBM39 to DCAF15” value in [8] is “not effectively recruited”. Moreover, the IC50 in the assay on HCT-116 cells amounted to 6.5 µM; on RBM39-Nluc, 5.6 µM.

As to `CC1(C)O[C@@H]2[C@@H](CO[C@@]3(COS(N)(=O)=O)OC(C)(C)O[C@@H]23)O1` [topirimate, topiramate], the “toxicity to HCT-116 cells” value in the assay on HCT-116 cells was “non-toxic”.

Source of the values: patent US20180140578A1, “METHODS AND COMPOSITIONS FOR THE DIAGNOSIS AND SELECTIVE TREATMENT OF CANCER” (Board of Regents of the University of Texas System, priority 2016, published 2018).
